Measurements published in patent US20240252552A1, “LIPOTEICHOIC ACID FROM STAPHYLOCOCCUS EPIDERMIDIS AND ITS USE TO MODULATE NEURONAL ACTIVITY VIA PD-1 INHIBITORY SIGNALLING IN NEURONS” (Northwestern University, priority 2023, published 2024).
“Also recorded” adds a separate entry of the source.

What was measured:
[1] = system: PD-1; assay: PD-1 expression in ex vivo dorsal root ganglion culture (immunofluorescence, qPCR); assay type: cell-based; details: ex vivo DRG, MMG11 + SELTA, TLR2 blockade
Source text: FIGS. 5A, 5B, 5C, 5D, and 5E. […] Scale bars=10 μm. (B) Distribution of intensity of PD-1 immunoreactivity in DRG based on the size of individual neurons in control (upper) and SELTA treatment (bottom). […] For all quantification analysis, a two-way ANOVA was used. *P<0.05, **P<0.01, #P<0.05. n=3 to 4 per group.
SELTA elevated PD-1 expression in primary sensory neurons. The inventor next examined PD-1 expression in the primary afferent neurons following direct exposure to SELTA. The inventor performed an ex vivo dorsal root ganglion (DRG) culture using DRG isolated at the levels of L2 to S1. Following 24-hour co-culture with SELTA, the expression of PD-1 was probed using immunofluorescence followed by confocal microscopy (FIG. 5A). To ascertain the cellular distribution of increased PD-1 expression, ImageJ analyses-based on individual cells were done and presented as the function of PD-1 immunoreactivity intensity to the cell size (FIG. 5B). Quantification was based on cell size-differential average fluorescence intensity (FIG. 5C). […] To further understand the expression of PD-1, immunoreactive intensities were normalized to the neuronal marker Neu-N (FIG. 5D). Changes were largely similar to FIG. 5C. The inventor next sought to examine whether the SELTA receptor TLR2 was involved in the modulation of PD-1 expression by SELTA. […]

[2] = system: trigeminal ganglion (TG) neurons; assay: Real-time Ca2+ imaging (fura-2 AM) of ATP-stimulated TG neuronal cultures; assay type: cell-based, C57Bl/6 mice; details: TG neurons preincubated with MMG11
Source text: FIG. 8. […] Analysis with Student's t test, p<0.0001.
SELTA-induced inhibition of Ca^2+ influx is reversed by neutralizing PD-1. In the transduction of nociceptive signal, Ca^2+ influx through voltage-gated Ca^2+ channels is critical for neurotransmitter release and synaptic transmission (12-14). To investigate whether intracellular Ca^2+ dynamics in the afferents are affected by SELTA (8, 15), the inventor established in vitro trigeminal ganglion (TG) neuronal cultures from adult C57Bl/6 mice and performed real-time Ca^2+ imaging using fura-2 AM (FIG. 8). Cells were pretreated with vehicle or SELTA prior to stimulation with 20 uM ATP. TLR2 specificity of these effects were examined by using MMG11, a TLR2-specific antagonist (10) and PD-1 requirement was examined by pre-incubation with an anti-PD-1 antibody (16).

For `CCOC(=O)c1ccc(CC(=O)c2ccc(O)c(O)c2O)o1` [MMG11], the “effect on SELTA-induced PD-1 mRNA expression (qPCR)” value [1] was “abrogated the elevation in PD-1 expression” and the “effect of TLR2 blockade on SELTA-mediated inhibition of Ca2+ influx” value [2] was “abrogated the SELTA mediated inhibition of Ca^2+ influx; also recorded: reverses SELTA-induced reduction of Ca2+ influx”.
